# Measured values from patent publication US20060069132A1, “Azolecarboxamide herbicides” (priority 2004, published 2006).
# Tests used:
# velvetleaf = experiment: Test B pre-/postemergence herbicide test; format: in vivo, Abutilon theophrasti
# Procedure, shortened: (§1)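 Greenhouse pot assay with simultaneous preemergence (treated seed) and postemergence (2–18 cm seedlings) applications of surfactant-containing, non-phytotoxic solvent formulations. Response scored visually 13–15 days later on a 0–100 scale, 100 meaning complete control.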
# blackgrass = experiment: Test B postemergence herbicide test; format: in vivo, Alopecurus myosuroides
# Procedure, shortened: (§2)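 Each value is a visual 0–100 response rating taken against controls 13 to 15 days after treatment in the greenhouse. Plants received formulated chemical postemergence at the 1- to 4-leaf stage or, in flooded paddy, at the 2-leaf stage.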
# corn = experiment: Test B pre-/postemergence herbicide test; format: in vivo, Zea mays
# Procedure, shortened: as §1
# ducksalad = experiment: Test B flooded paddy test; format: in vivo, Heteranthera limosa; details: 1000 g ai/ha, scale 0 to 100 (0 no effect, 100 complete control)
# Procedure, shortened: as §2
# pigweed = experiment: Test B pre-/postemergence herbicide test; format: in vivo, Amaranthus retroflexus
# Procedure, shortened: as §1
# rice = experiment: Test B flooded paddy test; format: in vivo, Oryza sativa; details: 1000 g ai/ha, scale 0 to 100 (0 no effect, 100 complete control)
# Procedure, shortened: (§3)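 Greenhouse test; postemergence application to plants at 1–4 leaves (2–18 cm); paddy species at 2 leaves; evaluated visually vs controls at 13–15 days; scale 0–100 (100 = complete control).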
# giant foxtail = experiment: Test B pre-/postemergence herbicide test; format: in vivo, Setaria faberi
# Procedure, shortened: as §1
# lambsquarters = experiment: Test B pre-/postemergence herbicide test; format: in vivo, Chenopodium album
# Procedure, shortened: as §1
# barnyardgrass [1] = experiment: Test B pre-/postemergence herbicide test; format: in vivo, Echinochloa crus-galli
# Procedure, shortened: (§4)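 Evaluation is visual, comparing treated with control plants on a scale where 0 means no effect and 100 means full control. Treatments were preemergence, or postemergence on seedlings 2–18 cm tall, and held 13–15 days in the greenhouse.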
# barnyardgrass [2] = experiment: Test B flooded paddy test; format: in vivo, Echinochloa crus-galli; details: 1000 g ai/ha, scale 0 to 100 (0 no effect, 100 complete control)
# Procedure, shortened: as §2
# wheat = experiment: Test B postemergence herbicide test; format: in vivo, Triticum aestivum; parameters: key to Wheat plant response rating: 0 = no effect, 100 = complete control
# Procedure, shortened: as §3
# morningglory = experiment: Test B pre-/postemergence herbicide test; format: in vivo, Ipomoea coccinea
# Procedure, shortened: as §4
# [3] = system: small flower umbrella sedge; experiment: Test B flooded paddy test; format: in vivo, Cyperus difformis; details: 1000 g ai/ha, scale 0 to 100 (0 no effect, 100 complete control)
# Procedure, shortened: as §2
# cocklebur = experiment: Test B pre-/postemergence herbicide test; format: in vivo, Xanthium strumarium
# Procedure, shortened: as §4
# wild oat = experiment: Test B postemergence herbicide test; format: in vivo, Avena fatua
# Procedure, shortened: as §3
# [4] = 125 g ai/ha; 0 = no effect, 100 = complete control; preemergence
# [5] = 500 g ai/ha; visual rating, 0 = no effect, 100 = complete control; preemergence
# [6] = postemergence, 125 g ai/ha; visual rating, scale 0 (no effect) to 100 (complete control)
# [7] = postemergence, 500 g ai/ha; visual rating, scale 0 (no effect) to 100 (complete control)
# [8] = 500 g ai/ha; visual rating 0-100, 0 no effect, 100 complete control; preemergence
# [9] = preemergence, 125 g ai/ha; 0 to 100 scale, 0 is no effect, 100 is complete control
# [10] = 125 g ai/ha; visual rating, scale 0 (no effect) to 100 (complete control); postemergence
# [11] = postemergence, 500 g ai/ha; scale 0 to 100, 0 is no effect, 100 is complete control
structure (smiles),measurement,setting,value
CCc1nc(C(C)(C)C)sc1C(=O)Nc1cccc(C(=O)NC(C)(C)C)n1 [Compound 216],Velvetleaf plant response rating (0 to 100 scale),velvetleaf; [4],0
same,"Plant response rating, Velvetleaf",velvetleaf; [5],0
same,Velvetleaf plant response rating,velvetleaf; [6],0
same,Velvetleaf plant response rating,velvetleaf; [7],60
same,Blackgrass plant response rating,blackgrass; [6],0
same,Blackgrass plant response rating,blackgrass; [7],0
same,Corn plant response rating (0 to 100 scale),corn; [4],0
same,"Plant response rating, Corn",corn; [5],0
same,Corn plant response rating,corn; [6],0
same,Corn plant response rating,corn; [7],10
same,Ducksalad plant response rating,"ducksalad; visual rating, 13 to 15 days",80
same,Pigweed plant response rating (0 to 100 scale),pigweed; [4],0
same,"Plant response rating, Pigweed",pigweed; [5],90
same,Pigweed plant response rating,pigweed; [6],0
same,Pigweed plant response rating,pigweed; [7],20
same,Rice plant response rating,"rice; visual rating, 13 to 15 days",30
same,"Foxtail, Giant plant response rating (0 to 100 scale)",giant foxtail; [4],0
same,"Plant response rating, Foxtail, Giant",giant foxtail; [5],60
same,"Foxtail, Giant plant response rating",giant foxtail; [6],0
same,"Foxtail, Giant plant response rating",giant foxtail; [7],20
same,Lambsquarters plant response rating (0 to 100 scale),lambsquarters; [4],90
same,"Plant response rating, Lambsquarters",lambsquarters; [5],100
same,Lambsquarters plant response rating,lambsquarters; [6],0
same,Lambsquarters plant response rating,lambsquarters; [7],0
same,Barnyardgrass plant response rating (0 to 100 scale),barnyardgrass [1]; [4],0
same,"Plant response rating, Barnyardgrass",barnyardgrass [1]; [5],40
same,Barnyardgrass plant response rating,barnyardgrass [1]; [6],0
same,Barnyardgrass plant response rating,barnyardgrass [1]; [7],10
same,Barnyardgrass plant response rating,"barnyardgrass [2]; visual rating, 13 to 15 days",20
same,Wheat plant response rating,wheat; [6],0
same,Wheat plant response rating,wheat; [7],10
same,Morningglory plant response rating (0 to 100 scale),morningglory; [4],0
same,"Plant response rating, Morningglory",morningglory; [5],0
same,Morningglory plant response rating,morningglory; [6],0
same,Morningglory plant response rating,morningglory; [7],0
same,"Sedge, Umbrella plant response rating","[3]; visual rating, 13 to 15 days",90
same,Cocklebur plant response rating (0 to 100 scale),cocklebur; [4],0
same,"Plant response rating, Cocklebur",cocklebur; [5],0
same,Cocklebur plant response rating,cocklebur; [6],0
same,Cocklebur plant response rating,cocklebur; [7],70
same,"Oat, Wild plant response rating",wild oat; [6],0
same,"Oat, Wild plant response rating",wild oat; [7],0
CCN(CC)C(=O)c1ccnc(NC(=O)c2cc(C(C)(C)C)nn2CC)c1 [Compound 153],"Plant response rating, Velvetleaf",velvetleaf; [8],100
same,Velvetleaf plant response rating,velvetleaf; [6],50
same,Velvetleaf plant response rating,velvetleaf; [7],60
same,"Plant response rating, Velvetleaf",velvetleaf; [9],40
same,Blackgrass plant response rating,blackgrass; [6],10
same,Blackgrass plant response rating,blackgrass; [7],10
same,"Plant response rating, Corn",corn; [8],20
same,Corn plant response rating,corn; [6],10
same,Corn plant response rating,corn; [7],20
same,"Plant response rating, Corn",corn; [9],0
same,Ducksalad plant response rating,"ducksalad; visual rating, 13 to 15 days",80
same,"Plant response rating, Pigweed",pigweed; [8],100
same,Pigweed plant response rating,pigweed; [6],20
same,Pigweed plant response rating,pigweed; [7],70
same,"Plant response rating, Pigweed",pigweed; [9],100
same,Rice plant response rating,"rice; visual rating, 13 to 15 days",60
same,"Plant response rating, Foxtail, Giant",giant foxtail; [8],50
same,"Foxtail, Giant plant response rating",giant foxtail; [6],10
same,"Foxtail, Giant plant response rating",giant foxtail; [7],20
same,"Plant response rating, Foxtail, Giant",giant foxtail; [9],0
same,"Plant response rating, Lambsquarters",lambsquarters; [8],100
same,Lambsquarters plant response rating,lambsquarters; [6],80
same,Lambsquarters plant response rating,lambsquarters; [7],80
same,"Plant response rating, Lambsquarters",lambsquarters; [9],100
same,"Plant response rating, Barnyardgrass",barnyardgrass [1]; [8],90
same,Barnyardgrass plant response rating,barnyardgrass [1]; [6],30
same,Barnyardgrass plant response rating,barnyardgrass [1]; [7],30
same,"Plant response rating, Barnyardgrass",barnyardgrass [1]; [9],60
same,Barnyardgrass plant response rating,"barnyardgrass [2]; visual rating, 13 to 15 days",40
same,Wheat plant response rating,wheat; [7],10
same,"Plant response rating, Morningglory",morningglory; [8],10
same,Morningglory plant response rating,morningglory; [6],10
same,Morningglory plant response rating,morningglory; [7],70
same,"Plant response rating, Morningglory",morningglory; [9],0
same,"Sedge, Umbrella plant response rating","[3]; visual rating, 13 to 15 days",70
same,"Plant response rating, Cocklebur",cocklebur; [8],0
same,Cocklebur plant response rating,cocklebur; [6],50
same,Cocklebur plant response rating,cocklebur; [7],100
same,"Plant response rating, Cocklebur",cocklebur; [9],0
same,"Oat, Wild plant response rating",wild oat; [6],20
same,"Oat, Wild plant response rating",wild oat; [7],50
CCNC(=O)c1ccc(F)c(NC(=O)c2cc(C3(C)CC3)nn2CC)c1 [Compound 300],Velvetleaf plant response rating,velvetleaf; [10],40
same,"Plant response rating, Velvetleaf",velvetleaf; [5],100
same,Velvetleaf plant response rating,velvetleaf; [11],70
same,Blackgrass plant response rating,blackgrass; [10],10
same,Blackgrass plant response rating,blackgrass; [11],30
same,Corn plant response rating (0 to 100 scale),corn; [4],0
same,Corn plant response rating,corn; [10],30
same,"Plant response rating, Corn",corn; [5],70
same,Corn plant response rating,corn; [11],30
same,Ducksalad plant response rating,ducksalad,90
same,Pigweed plant response rating (0 to 100 scale),pigweed; [4],100
same,Pigweed plant response rating,pigweed; [10],80
same,"Plant response rating, Pigweed",pigweed; [5],100
same,Pigweed plant response rating,pigweed; [11],90
same,Rice plant response rating,rice,90
same,"Foxtail, Giant plant response rating (0 to 100 scale)",giant foxtail; [4],80
same,"Foxtail, Giant plant response rating",giant foxtail; [10],30
same,"Plant response rating, Foxtail, Giant",giant foxtail; [5],100
same,"Foxtail, Giant plant response rating",giant foxtail; [11],30
same,Lambsquarters plant response rating (0 to 100 scale),lambsquarters; [4],100
same,Lambsquarters plant response rating,lambsquarters; [10],70
same,"Plant response rating, Lambsquarters",lambsquarters; [5],100
same,Lambsquarters plant response rating,lambsquarters; [11],80
same,Barnyardgrass plant response rating (0 to 100 scale),barnyardgrass [1]; [4],70
same,Barnyardgrass plant response rating,barnyardgrass [1]; [10],30
same,"Plant response rating, Barnyardgrass",barnyardgrass [1]; [5],90
same,Barnyardgrass plant response rating,barnyardgrass [1]; [11],50
same,Barnyardgrass plant response rating,barnyardgrass [2],90
same,Wheat plant response rating,wheat; [10],10
same,Wheat plant response rating,wheat; [11],20
same,Morningglory plant response rating (0 to 100 scale),morningglory; [4],10
same,Morningglory plant response rating,morningglory; [10],90
same,"Plant response rating, Morningglory",morningglory; [5],60
same,Morningglory plant response rating,morningglory; [11],90
same,"Sedge, Umbrella plant response rating",[3],90
same,Cocklebur plant response rating (0 to 100 scale),cocklebur; [4],10
same,Cocklebur plant response rating,cocklebur; [10],10
same,"Plant response rating, Cocklebur",cocklebur; [5],20
same,Cocklebur plant response rating,cocklebur; [11],50
same,"Oat, Wild plant response rating",wild oat; [10],30
same,"Oat, Wild plant response rating",wild oat; [11],30
